Counter-ions that a name gives are not always drawn.
How the values were obtained:
laboratory rats = assay: Scopolamine Induced Swimming Assay (SIS); type: in vivo, rat; settings: for reversal of scopolamine-induced swimming hyperactivity: rats given scopolamine, result in words
Method: In the Scopolamine Induced Swimming Assay (SIS) the ability of a test compound to reverse the hyperactive swimming behavior of laboratory rats given scopolamine is determined. In the assay, untreated rats generally swim between 20 to 30 meters during a five-minute test period. […] The effect of scopolamine is centrally mediated. Thus, the ability of the test compound to reverse the hyperactive swimming behavior induced by scopolamine is a measure of the central cholinergic activity of the compound.

[1] = molecular target: central muscarinic agonist site; assay: Receptor [3H]Cis-methyldioxalane Assay (RCMD), central muscarinic agonist site binding; settings: rat cerebral cortex tissue; radiolabeled cis-methyldioxalane; head also prints (0.1 μM)
[2] = tested on: central muscarinic antagonist site; type: binding; settings: rat cerebral cortex tissue; radiolabeled quinuclidinyl benzilate; (1 μM); read-out: RQNB IC50
mice = settings: cited from earlier work
[3] = in vivo; cited from earlier work
[4] = tested on: aged humans and nonhuman primates; settings: acetylcholinesterase inhibitor; cited from earlier work
[5] = tested on: human SK-N-SH cells bearing muscarinic binding sites; assay: Muscarinic Induced Inositol Phosphate Accumulation Assay (MIPA); type: cell-based; settings: inositol phosphate production, concentration for response 50% of the maximum, read-out: Agonist Response ED50
Method: In the Muscarinic Induced Inositol Phosphate Accumulation Assay (MIPA) human SK-N-SH cells bearing muscarinic binding sites are incubated with the test compound. The production of inositol phosphates is then measured. Stimulation of inositol phosphate turnover reflects the degree of muscarinic agonist activity of the test compound. The concentration of test compound required to produce a response 50% of the maximum is then determined.

[6] = in vivo; cited from earlier work; remark: listed apart in the source

COC(=O)C1=CCCN(C)C1 [arecoline]
reversal of scopolamine-induced swimming hyperactivity (laboratory rats): can be reversed

COC(=O)N(C)CC#CCN1CCCCC1 [Example 1f, Methyl methyl[4-(1-piperidinyl]-2-butynyl-carbamate, ethanedioate (1:1) (salt)]
IC50 [1]: 1.57 µM | IC50 [2]: 4.99 µM

CN1[C@@H]2C[C@@H](OC(=O)[C@H](CO)c3ccccc3)C[C@H]1[C@@H]1O[C@@H]12 [scopolamine]
swimming distance increase above baseline values (laboratory rats; scopolamine 0.1 mg/kg, five-minute test period, rats): 75-125%

C(#CCN1CCCC1)CN1CCCC1 [tremorine, 1,4-dipyrrolidino-2-butyne]
duration of profound tremor of the head and limbs (mice): more than one | conversion to active metabolite oxotremorine [3]: converted to an active metabolite, oxotremorine

CNC(=O)Oc1ccc2c(c1)[C@]1(C)CCN(C)[C@@H]1N2C [physostigmine]
reversal of scopolamine-induced swimming hyperactivity (laboratory rats): can be reversed | memory [4]: improved memory

COC(=O)N(C)CC#CCN1CCCC1 [Example 1, Methyl[methyl4-(1-pyrrolidinyl]-2-butynyl]]-carbamate, ethanedioate (1:1) (salt)]
IC50 [1]: 0.0143 µM | IC50 [2]: 2.66 µM | EC50 [5]: 10 µM | minimal effective dose (laboratory rats; Rattus norvegicus, Minimal Effective Dose to reverse scopolamine (0.1 mg/kg) induced hyperactive swimming in rats, read-out: Reversal of SIS Hyperactivity MED): 10 mg/kg

COC(=O)N(C)CC#CCN1CCCCCC1 [Example 1g, Methyl[4-(hexahydro-1H-azepin-1-yl]-2-butynyl]methylcarbamate, ethanedioate (1:1) (salt)]
IC50 [1]: 0.958 µM | IC50 [2]: 1.95 µM

Nc1ccncc1N [3,4-diaminopyridine]
age-related cognitive deficits [6]: ameliorate age-related cognitive deficits

COC(=O)N(C)CC#CCN(C)C [Example 2, Methyl[4-(dimethylamino)-2-butynyl]methyl-carbamate, ethanedioate (1:1)(salt)]
IC50 [1]: 0.063 µM | IC50 [2]: 46.6 µM | EC50 [5]: 59.2 µM

— US4996201A, “4-(N-substituted amino)-2-butynyl-1-carbamates and thiocarbamates and derivatives thereof as centrally acting muscarinic agents” (Warner-Lambert Co., priority 1989, dated 1991)
